Where “and” joins values, the source holds several entries; their conditions need not be identical. Identical values can stand only once. Inconclusive results and toxic doses are left out.
Tested on: CD2F1 mice, L1210 leukemia ip, survival T/C
Experiment: NCI In Vivo Anticancer Drug Screen. Data for tumor model L1210 Leukemia (intraperitoneal) in CD2F1 (CDF1) mice
Settings: higher = longer survival
Procedure, shortened: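 Activity against a transplanted murine tumor was judged by comparing the compound group with a vehicle group. The outcome in the treated animals was divided by that in the controls.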

[1] = endpoint: mean survival time, dose: 100.0 mg/kg/injection, schedule: Q04DX003 (ip), vehicle: saline
[2] = endpoint: mean survival time, dose: 200.0 mg/kg/injection, schedule: Q04DX003 (ip), vehicle: saline
[3] = endpoint: mean survival time, dose: 100.0 mg/kg/injection, schedule: Q01DX001 (ip), vehicle: saline with Tween-80
[4] = endpoint: mean survival time, dose: 200.0 mg/kg/injection, schedule: Q01DX001 (ip), vehicle: saline with Tween-80
[5] = endpoint: mean survival time, dose: 400.0 mg/kg/injection, schedule: Q01DX001 (ip), vehicle: saline with Tween-80
[6] = endpoint: mean survival time, dose: 100.0 mg/kg/injection, schedule: Q01DX009 (ip), vehicle: saline with Tween-80
[7] = endpoint: mean survival time, dose: 200.0 mg/kg/injection, schedule: Q01DX009 (ip), vehicle: saline with Tween-80
[8] = endpoint: mean survival time, dose: 400.0 mg/kg/injection, schedule: Q01DX009 (ip), vehicle: saline with Tween-80
[9] = endpoint: mean survival time, dose: 100.0 mg/kg/injection, schedule: Q01DX001 (ip), vehicle: carboxymethylcellulose (CMC)

With `Cn1c2ccccc2c2ccc3c(c21)C(=O)C=CC3=O` the T/C (endpoint: median survival time, dose: 12.5 mg/kg/injection, schedule: Q01DX009 (ip), vehicle: Klucel (hydroxypropylcellulose) (HPC)) was 100 % of control, the T/C (endpoint: median survival time, dose: 25.0 mg/kg/injection, schedule: Q01DX009 (ip), vehicle: Klucel (hydroxypropylcellulose) (HPC)) was 102 % of control and the T/C (endpoint: median survival time, dose: 50.0 mg/kg/injection, schedule: Q01DX009 (ip), vehicle: Klucel (hydroxypropylcellulose) (HPC)) was 109 % of control.
`CNC(=O)NC1CCC(C)CC1` (stereo not given) was tested, and the T/C [1] was 98 % of control, the T/C [2] was 96 % of control and the T/C (endpoint: mean survival time, dose: 400.0 mg/kg/injection, schedule: Q04DX003 (ip), vehicle: saline) was 96 % of control.
In the case of `COc1ccc(C(=S)c2ccc(OC)cc2)cc1`, the T/C [3] is reported as 101 % of control, the T/C [4] is reported as 96 % of control and the T/C [5] is reported as 101 % of control.
With `CN[C@H]1CCc2cc(OC)c(OC)c(OC)c2-c2ccc(OC)c(=O)cc21` the T/C (endpoint: mean survival time, dose: 0.63 mg/kg/injection, schedule: Q01DX009 (ip), vehicle: saline) was 113 % of control and 105 % of control, the T/C (endpoint: mean survival time, dose: 0.63 mg/kg/injection, schedule: Q01DX009 (ip), vehicle: water) was 97 % of control and 101 % of control and the T/C (endpoint: mean survival time, dose: 1.25 mg/kg/injection, schedule: Q01DX009 (ip), vehicle: saline) was 113 % of control and 116 % of control. For the same compound, the T/C (endpoint: mean survival time, dose: 1.25 mg/kg/injection, schedule: Q01DX009 (ip), vehicle: water) was 118 % of control and 108 % of control, the T/C (endpoint: mean survival time, dose: 2.5 mg/kg/injection, schedule: Q01DX007 (ip), vehicle: saline) was 121 % of control and the T/C (endpoint: mean survival time, dose: 2.5 mg/kg/injection, schedule: Q01DX009 (ip), vehicle: saline) was 121 % of control and 123 % of control and 124 % of control. For the same compound, the T/C (endpoint: mean survival time, dose: 2.5 mg/kg/injection, schedule: Q01DX009 (ip), vehicle: water) was 116 % of control and 107 % of control, the T/C (endpoint: mean survival time, dose: 2.5 mg/kg/injection, schedule: Q03DX003 (ip), vehicle: saline) was 102 % of control and the T/C (endpoint: mean survival time, dose: 2.5 mg/kg/injection, schedule: Q04DX003 (ip), vehicle: saline) was 95 % of control. For the same compound, the T/C (endpoint: mean survival time, dose: 5.0 mg/kg/injection, schedule: Q01DX007 (ip), vehicle: saline) was 122 % of control, the T/C (endpoint: mean survival time, dose: 5.0 mg/kg/injection, schedule: Q01DX009 (ip), vehicle: saline) was 120 % of control and the T/C (endpoint: mean survival time, dose: 5.0 mg/kg/injection, schedule: Q01DX009 (ip), vehicle: water) was 118 % of control. For the same compound, the T/C (endpoint: mean survival time, dose: 5.0 mg/kg/injection, schedule: Q03DX003 (ip), vehicle: saline) was 115 % of control, the T/C (endpoint: mean survival time, dose: 5.0 mg/kg/injection, schedule: Q04DX003 (ip), vehicle: saline) was 105 % of control and the T/C (endpoint: mean survival time, dose: 10.0 mg/kg/injection, schedule: Q01DX009 (ip), vehicle: water) was 124 % of control and 108 % of control. The T/C (endpoint: mean survival time, dose: 10.0 mg/kg/injection, schedule: Q04DX003 (ip), vehicle: saline) was 101 % of control, the T/C (endpoint: median survival time, dose: 0.63 mg/kg/injection, schedule: Q01DX009 (ip), vehicle: saline) was 114 % of control and 100 % of control and the T/C (endpoint: median survival time, dose: 1.25 mg/kg/injection, schedule: Q01DX009 (ip), vehicle: saline) was 114 % of control and 100 % of control. The T/C (endpoint: median survival time, dose: 2.5 mg/kg/injection, schedule: Q01DX009 (ip), vehicle: saline) was 121 % of control and 111 % of control and the T/C (endpoint: median survival time, dose: 5.0 mg/kg/injection, schedule: Q01DX009 (ip), vehicle: saline) was 150 % of control.
For `Cc1ccc(S(=O)(=O)OCC2CC=CCC2COS(=O)(=O)c2ccc(C)cc2)cc1` (stereo not given), the T/C (endpoint: mean survival time, dose: 50.0 mg/kg/injection, schedule: Q04DX003 (ip), vehicle: saline) was 102 % of control, the T/C [1] was 96 % of control and the T/C [2] was 91 % of control.
In the case of `O=C(Nc1ccccc1SC(=O)c1ccccc1)c1ccccc1`, the T/C (endpoint: mean survival time, dose: 50.0 mg/kg/injection, schedule: Q01DX009 (ip), vehicle: saline with Tween-80) is reported as 91 % of control, the T/C [6] is reported as 87 % of control and the T/C [7] is reported as 91 % of control.
`C1CCC2(CC1)OCCS2` was tested, and the T/C (endpoint: mean survival time, dose: 100.0 mg/kg/injection, schedule: Q01DX001 (ip), vehicle: saline) was 96 % of control and the T/C (endpoint: mean survival time, dose: 200.0 mg/kg/injection, schedule: Q01DX001 (ip), vehicle: saline) was 94 % of control.
With `COc1cc(-c2ccc3cc(OC)c(OC)c(OC)c3c2)cc(OC)c1OC` the T/C [6] was 96 % of control, the T/C [7] was 98 % of control and the T/C [8] was 96 % of control.
In the case of `CCOC(=O)CN1CCC2CC1c1c([nH]c3ccccc13)C2c1cc2c(cc1OC)N(C)C1C(O)(C(=O)OC)C(OC(C)=O)C3(CC)C=CCN4CCC21C43` (stereo not given), the T/C (endpoint: mean survival time, dose: 0.06 mg/kg/injection, schedule: Q01DX009 (ip), vehicle: other) is reported as 87 % of control, the T/C (endpoint: mean survival time, dose: 0.13 mg/kg/injection, schedule: Q01DX009 (ip), vehicle: other) is reported as 97 % of control and the T/C (endpoint: mean survival time, dose: 0.25 mg/kg/injection, schedule: Q01DX009 (ip), vehicle: other) is reported as 92 % of control. For the same compound, the T/C (endpoint: mean survival time, dose: 0.5 mg/kg/injection, schedule: Q01DX009 (ip), vehicle: other) was 92 % of control, the T/C (endpoint: mean survival time, dose: 1.0 mg/kg/injection, schedule: Q01DX009 (ip), vehicle: other) was 97 % of control and the T/C (endpoint: mean survival time, dose: 2.0 mg/kg/injection, schedule: Q01DX009 (ip), vehicle: other) was 90 % of control.
`O=C1OC(/C=C\c2ccccc2)=NC/1=C\c1cc(Br)cc(Br)c1O` was tested, and the T/C (endpoint: mean survival time, dose: 100.0 mg/kg/injection, schedule: Q04DX002 (ip), vehicle: saline with Tween-80) was 94 % of control, the T/C (endpoint: mean survival time, dose: 200.0 mg/kg/injection, schedule: Q04DX002 (ip), vehicle: saline with Tween-80) was 98 % of control and the T/C (endpoint: mean survival time, dose: 400.0 mg/kg/injection, schedule: Q04DX002 (ip), vehicle: saline with Tween-80) was 105 % of control.
For `COC1OCC(OS(C)(=O)=O)C(OS(C)(=O)=O)C1OS(C)(=O)=O` (stereo not given), the T/C [3] was 96 % of control, the T/C [6] was 95 % of control and 100 % of control and the T/C [4] was 97 % of control. For the same compound, the T/C [7] was 96 % of control and 94 % of control, the T/C [5] was 100 % of control and the T/C [8] was 93 % of control and 96 % of control.
With `O=C(O)C(C(=O)O)C1Cc2cccc3cccc1c23` (stereo not given) the T/C [3] was 94 % of control.
In the case of `CN(C)C1c2ccccc2-c2ccc(F)cc21` (stereo not given), the T/C (endpoint: mean survival time, dose: 50.0 mg/kg/injection, schedule: Q01DX001 (ip), vehicle: carboxymethylcellulose (CMC)) is reported as 107 % of control and the T/C [9] is reported as 113 % of control.
With `OCC1OC(n2cc(I)c3c2ncn2ccnc32)C(O)C1O` (stereo not given) the T/C (endpoint: mean survival time, dose: 1.56 mg/kg/injection, schedule: Q01DX005 (ip), vehicle: water) was 92 % of control, the T/C (endpoint: mean survival time, dose: 3.13 mg/kg/injection, schedule: Q01DX005 (ip), vehicle: water) was 92 % of control and the T/C (endpoint: mean survival time, dose: 6.25 mg/kg/injection, schedule: Q01DX005 (ip), vehicle: water) was 97 % of control. For the same compound, the T/C (endpoint: mean survival time, dose: 12.5 mg/kg/injection, schedule: Q01DX005 (ip), vehicle: water) was 104 % of control and the T/C (endpoint: mean survival time, dose: 25.0 mg/kg/injection, schedule: Q01DX005 (ip), vehicle: water) was 100 % of control.
In the case of `CCCCCCC(=O)CCCCCCCCCCCCC(=O)OC`, the T/C (endpoint: mean survival time, dose: 100.0 mg/kg/injection, schedule: Q04DX003 (ip), vehicle: saline with Tween-80) is reported as 95 % of control, the T/C (endpoint: mean survival time, dose: 200.0 mg/kg/injection, schedule: Q04DX003 (ip), vehicle: saline with Tween-80) is reported as 97 % of control and the T/C (endpoint: mean survival time, dose: 400.0 mg/kg/injection, schedule: Q04DX003 (ip), vehicle: saline with Tween-80) is reported as 93 % of control.
`CC(=O)OCC1(OC2OC(CNC(=O)N(C)N=O)C(OC(C)=O)C(OC(C)=O)C2OC(C)=O)OC(CNC(=O)N(C)N=O)C(OC(C)=O)C1OC(C)=O` (stereo not given) was tested, and the T/C (endpoint: mean survival time, dose: 12.5 mg/kg/injection, schedule: Q01DX009 (ip), vehicle: other) was 102 % of control, the T/C (endpoint: mean survival time, dose: 25.0 mg/kg/injection, schedule: Q01DX009 (ip), vehicle: other) was 102 % of control and the T/C (endpoint: mean survival time, dose: 50.0 mg/kg/injection, schedule: Q01DX009 (ip), vehicle: other) was 109 % of control. For the same compound, the T/C (endpoint: mean survival time, dose: 100.0 mg/kg/injection, schedule: Q01DX009 (ip), vehicle: other) was 105 % of control and the T/C (endpoint: mean survival time, dose: 200.0 mg/kg/injection, schedule: Q01DX009 (ip), vehicle: other) was 119 % of control.
With `COc1ccc(NC(=O)Nc2nccs2)c(Cl)c1` the T/C (endpoint: mean survival time, dose: 50.0 mg/kg/injection, schedule: Q01DX009 (ip), vehicle: Klucel (hydroxypropylcellulose) (HPC)) was 98 % of control, the T/C (endpoint: mean survival time, dose: 100.0 mg/kg/injection, schedule: Q01DX009 (ip), vehicle: Klucel (hydroxypropylcellulose) (HPC)) was 98 % of control and the T/C (endpoint: mean survival time, dose: 100.0 mg/kg/injection, schedule: Q04DX003 (ip), vehicle: Klucel (hydroxypropylcellulose) (HPC)) was 106 % of control. For the same compound, the T/C (endpoint: mean survival time, dose: 200.0 mg/kg/injection, schedule: Q01DX009 (ip), vehicle: Klucel (hydroxypropylcellulose) (HPC)) was 87 % of control, the T/C (endpoint: mean survival time, dose: 200.0 mg/kg/injection, schedule: Q04DX003 (ip), vehicle: Klucel (hydroxypropylcellulose) (HPC)) was 102 % of control and the T/C (endpoint: mean survival time, dose: 400.0 mg/kg/injection, schedule: Q04DX003 (ip), vehicle: Klucel (hydroxypropylcellulose) (HPC)) was 98 % of control.
`CCOC(=O)Nc1cc(N)c2n[nH]nc2n1` was tested, and the T/C [9] was 100 % of control, the T/C (endpoint: mean survival time, dose: 200.0 mg/kg/injection, schedule: Q01DX001 (ip), vehicle: carboxymethylcellulose (CMC)) was 98 % of control and the T/C (endpoint: mean survival time, dose: 400.0 mg/kg/injection, schedule: Q01DX001 (ip), vehicle: carboxymethylcellulose (CMC)) was 102 % of control.

Reference: PubChem BioAssay AID256 (DTP/NCI, 2004)
